Test systems include 786-0 renal; CCRF-CEM leukemia; HCC-2998 colon; HT29 colon; NCI-H460 lung; OVCAR-4 ovarian; RXF 393 renal; SF-539 CNS; SK-MEL-2 melanoma; SK-MEL-5 melanoma.
Common to all, as to test: growth of human tumour cells (NCI), 48 h

Structures are written as SMILES.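 Growth conditions: 96-well plates. Treatment: test compound, 48 hours, 5 concentrations. Analysis: linear interpolation between bracketing concentrations; unreached endpoints set to highest concentration. The concentration for 50% growth inhibition is given as GI50. TGI marks complete inhibition of growth.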

Regarding `O=c1nc2oc3ccc4ccccc4c3cc-2s1`, the GI50 was 3.25 µM in the assay with 786-0 renal; 0.989 µM with CCRF-CEM leukemia; above 100 µM with HCC-2998 colon; 18 µM with HT29 colon; 4.93 µM with NCI-H460 lung; 58.4 µM in the assay with OVCAR-4 ovarian. Also, the GI50 in the assay on RXF 393 renal is 1.83 µM; in the assay with SF-539 CNS it was 1.58 µM; in the assay on SK-MEL-2 melanoma, 3.79 µM; with SK-MEL-5 melanoma, 2.44 µM. Moreover, the TGI with 786-0 renal, with CCRF-CEM leukemia, in the assay with HCC-2998 colon, with HT29 colon, in the assay on NCI-H460 lung and with OVCAR-4 ovarian was above 100 µM each time. Also, the TGI is 21.6 µM with RXF 393 renal, above 100 µM in the assay with SF-539 CNS, above 100 µM with SK-MEL-2 melanoma and above 100 µM in the assay on SK-MEL-5 melanoma.

`COc1cccc(-n2ncc3c(N/N=C/c4ccncc4)ncnc32)c1`: the GI50 was 4.66 µM with 786-0 renal; above 13.4 µM in the assay with CCRF-CEM leukemia; above 25 µM with HCC-2998 colon; 2.24 µM with HT29 colon; 2.57 µM in the assay on NCI-H460 lung; above 25 µM in the assay on OVCAR-4 ovarian. The GI50 with RXF 393 renal was 0.672 µM; in the assay on SF-539 CNS, 4.27 µM; with SK-MEL-2 melanoma, 4.33 µM; in the assay with SK-MEL-5 melanoma, 0.799 µM. The TGI in the assay with 786-0 renal, with CCRF-CEM leukemia, in the assay with HCC-2998 colon, with HT29 colon, with NCI-H460 lung and in the assay on OVCAR-4 ovarian was above 25 µM each time. The TGI in the assay on RXF 393 renal was above 25 µM; with SF-539 CNS, above 25 µM; in the assay on SK-MEL-2 melanoma, above 25 µM; in the assay with SK-MEL-5 melanoma, above 9.75 µM.

For the compound `COC(=O)CCC(NC(=S)N/N=C/c1ccco1)C(=O)OC` (stereo unspecified), the TGI with 786-0 renal, in the assay with CCRF-CEM leukemia, with HCC-2998 colon, in the assay with HT29 colon, with NCI-H460 lung and in the assay on OVCAR-4 ovarian was above 100 µM throughout. The TGI in the assay with RXF 393 renal, in the assay with SF-539 CNS, with SK-MEL-2 melanoma and in the assay with SK-MEL-5 melanoma was above 100 µM each time.

Consider `COc1c2c(nc3ccccc13)-c1cc3c(c(=O)n1C2)COC(=O)C3(O)CC(=O)N1CCOCC1` (stereo unspecified), for which the TGI with 786-0 renal is 12.8 µM; in the assay on CCRF-CEM leukemia, 3.95 µM; in the assay on HCC-2998 colon, 75.8 µM; in the assay with HT29 colon, 68 µM; in the assay with NCI-H460 lung it was 30.9 µM; in the assay with OVCAR-4 ovarian it was above 100 µM. Further, the TGI in the assay with RXF 393 renal turned out to be 26.9 µM; with SF-539 CNS, 5.8 µM; in the assay with SK-MEL-2 melanoma it was 64.6 µM; with SK-MEL-5 melanoma it was 23 µM.

For the compound `O=C(NN1C(=O)CSC12CCCC2)c1[nH]c2ccc(Br)cc2c1-c1ccccc1`, the GI50 is 22.3 µM with 786-0 renal; 40.1 µM in the assay with CCRF-CEM leukemia; 44.6 µM with HCC-2998 colon; 30.7 µM with HT29 colon; 46.9 µM in the assay with NCI-H460 lung; 24.7 µM in the assay with OVCAR-4 ovarian. Also, the GI50 is 31.2 µM in the assay with RXF 393 renal, above 100 µM in the assay on SF-539 CNS, 69 µM in the assay on SK-MEL-2 melanoma and 63.9 µM in the assay on SK-MEL-5 melanoma. Also, the TGI in the assay with 786-0 renal, in the assay on CCRF-CEM leukemia, in the assay with HCC-2998 colon, in the assay on HT29 colon, in the assay with NCI-H460 lung and with OVCAR-4 ovarian was above 100 µM in each case. Further, the TGI in the assay with RXF 393 renal, in the assay on SF-539 CNS, in the assay on SK-MEL-2 melanoma and with SK-MEL-5 melanoma was above 100 µM each time.

For `CN(C)c1ccc2c(c1)OC(N)=C(C#N)C2c1ccc2c(c1)CCO2` (stereo unspecified), the GI50 was 0.0502 µM with 786-0 renal; 0.216 µM in the assay with CCRF-CEM leukemia; 0.469 µM in the assay on HCC-2998 colon; 0.321 µM with HT29 colon; below 0.0231 µM in the assay on NCI-H460 lung; 0.704 µM in the assay on OVCAR-4 ovarian. In addition, the GI50 with RXF 393 renal was 0.255 µM; in the assay with SF-539 CNS, 0.118 µM; in the assay on SK-MEL-2 melanoma, 0.0962 µM; with SK-MEL-5 melanoma it was below 0.0427 µM. For the same compound, the TGI with 786-0 renal was 25.1 µM; in the assay with CCRF-CEM leukemia, above 52.6 µM; in the assay with HCC-2998 colon it was above 100 µM; in the assay on NCI-H460 lung it was 18.3 µM; in the assay on OVCAR-4 ovarian it was above 100 µM; in the assay on SF-539 CNS it was 0.519 µM. In addition, the TGI in the assay with SK-MEL-2 melanoma came to 24.7 µM; in the assay on SK-MEL-5 melanoma, 15.1 µM.

For `CN1CC[C@@H](c2c(O)cc(O)c3c(=O)cc(-c4ccccc4Cl)oc23)[C@@H]1CO`, the GI50 with 786-0 renal was 0.339 µM; in the assay with CCRF-CEM leukemia, 0.259 µM; with HCC-2998 colon, 0.36 µM; in the assay with HT29 colon, 0.442 µM; with NCI-H460 lung it was 0.318 µM; in the assay on OVCAR-4 ovarian it was 0.709 µM. The GI50 was 0.192 µM in the assay with RXF 393 renal, 0.275 µM with SF-539 CNS and 0.228 µM in the assay with SK-MEL-2 melanoma. Besides, the TGI with 786-0 renal was above 10 µM; with CCRF-CEM leukemia, above 3.13 µM; in the assay on HCC-2998 colon, 3.67 µM; with HT29 colon, 6.66 µM; in the assay on NCI-H460 lung, above 10 µM; in the assay with OVCAR-4 ovarian, above 9.29 µM. The TGI with RXF 393 renal is 0.43 µM; with SF-539 CNS, 0.863 µM; with SK-MEL-2 melanoma, 0.594 µM.

Consider `Cc1[nH]c2ccccc2c1C1Cc2ccccc2N1C(=O)/C=C/C(=O)O` (stereo unspecified), for which the TGI was above 100 µM in the assay on 786-0 renal; above 100 µM with CCRF-CEM leukemia; above 100 µM with HCC-2998 colon; above 100 µM in the assay with HT29 colon; 61.3 µM in the assay with NCI-H460 lung; above 100 µM in the assay on OVCAR-4 ovarian. Moreover, the TGI in the assay on RXF 393 renal, in the assay on SF-539 CNS, with SK-MEL-2 melanoma and in the assay with SK-MEL-5 melanoma was above 100 µM each time.

Turning to `COc1cc(C(=O)NC2CCN(C)CC2)c(F)cc1Nc1ncc2c(n1)N(C1CCCC1)CC(F)(F)C(=O)N2C`, the GI50 in the assay on 786-0 renal was 0.0435 µM; in the assay on CCRF-CEM leukemia, below 0.01 µM; in the assay on HCC-2998 colon, 0.0293 µM; in the assay on HT29 colon it was below 0.01 µM; with NCI-H460 lung it was below 0.0168 µM; in the assay with OVCAR-4 ovarian it was 0.396 µM. The GI50 in the assay on RXF 393 renal was below 0.0169 µM; in the assay with SF-539 CNS it was below 0.0181 µM; in the assay on SK-MEL-2 melanoma, below 0.01 µM; in the assay on SK-MEL-5 melanoma it was below 0.022 µM. In addition, the TGI was 11.7 µM in the assay on 786-0 renal; 3.58 µM with CCRF-CEM leukemia; 12.3 µM in the assay on HCC-2998 colon; 11.1 µM in the assay with HT29 colon; 12.4 µM in the assay with NCI-H460 lung; 14.1 µM with OVCAR-4 ovarian. The TGI in the assay with RXF 393 renal stood at 15.2 µM; in the assay on SF-539 CNS, 1.3 µM; in the assay on SK-MEL-2 melanoma, 3.4 µM; with SK-MEL-5 melanoma, 2.32 µM.

For the origin of these results see PubChem BioAssay (NCI).
